For eight compounds, Activity and MIC results are on record in ChEMBL document CHEMBL3272307, “Imidazo(1,2-c)pyrimidine nucleosides. Synthesis and biological evaluation of certain 1-(beta-D-arabinofuranosyl)imidazo(1,2-c)pyrimidines” (1976).

Each structure is given as a SMILES string. Values after ≈ are worked out from the molar mass of the structure shown. Active and inactive are the calls of the source. The calls are words filed in the database; no cut-off is given here.

The test system of one experiment is Escherichia coli. Kind of experiment: Antimicrobial activity against Escherichia coli clinical isolate at 0.005 to 0.4 umol/ml after 24 hrs by broth dilution assay. It counts as functional, organism-based. (In broth dilution the organism is exposed to a series of concentrations in liquid medium.)
A further experiment concerns KB. Briefly: Antiviral activity against Rhinovirus type 13 infected in human KB cells assessed as inhibition of virus-induced cytopathic effect at 1 to 1000 ug/ml after 72 hrs. Conditions: Human rhinovirus A13. It counts as functional, cell-based. (In general: Cytopathic effects are the visible damage that an infection or toxin causes in cultured cells.)
Experiment [1] deals with Trichophyton mentagrophytes. Briefly: Antimicrobial activity against Trichophyton mentagrophytes clinical isolate at 0.005 to 0.4 umol/ml after 48 hrs by broth dilution assay. The experiment is classed as functional, organism-based.
Another experiment relates to Proteus mirabilis. Briefly: Antimicrobial activity against Proteus mirabilis clinical isolate at 0.005 to 0.4 umol/ml after 24 hrs by broth dilution assay. It counts as functional, organism-based.
The next experiment relates to Candida albicans. Kind of experiment: Antimicrobial activity against Candida albicans clinical isolate at 0.005 to 0.4 umol/ml after 24 hrs by broth dilution assay. The experiment is classed as functional, organism-based.
In the next experiment the test system is Klebsiella pneumoniae. Kind of experiment: Antimicrobial activity against Klebsiella pneumoniae clinical isolate at 0.005 to 0.4 umol/ml after 24 hrs by broth dilution assay. The experiment is classed as functional, organism-based.
Another experiment has as its system Human respirovirus 3. Briefly: Antiviral activity against Parainfluenza virus type 3 infected in human KB cells assessed as inhibition of virus-induced cytopathic effect at 1 to 1000 ug/ml after 72 hrs. The experiment is classed as functional, organism-based.
The test system of experiment [2] is Staphylococcus aureus. Briefly: Antimicrobial activity against Staphylococcus aureus clinical isolate at 0.005 to 0.4 umol/ml after 24 hrs by broth dilution assay. It counts as functional, organism-based.
In another experiment the test system is Human alphaherpesvirus 1. Kind of experiment: Antiviral activity against Herpes simplex virus 1 infected in human KB cells assessed as inhibition of virus induced cytopathic effects at 1 to 1000 ug/ml after 72 hrs. It counts as functional, organism-based.
Experiment [3] concerns Staphylococcus aureus. Briefly: Antimicrobial activity against Staphylococcus aureus clinical isolate after 24 hrs by broth dilution assay. The experiment is classed as functional.
Experiment [4] relates to Trichophyton mentagrophytes. Kind of experiment: Antimicrobial activity against Trichophyton mentagrophytes clinical isolate after 48 hrs by broth dilution assay. It counts as functional.

Take `O=c1nc(Cl)cc2n([C@@H]3O[C@H](COCc4ccccc4)[C@@H](OCc4ccccc4)[C@@H]3OCc3ccccc3)ccn12`: the outcome (in the experiment with Escherichia coli; with KB; in experiment [1]; in the experiment on Proteus mirabilis; with Candida albicans; with Klebsiella pneumoniae) was inactive. Also, the outcome with Human respirovirus 3, in the experiment on Staphylococcus aureus [2] and in the experiment on Human alphaherpesvirus 1 was inactive.
For the compound `O=c1nccc2n([C@@H]3O[C@H](CO)[C@@H](O)[C@@H]3O)ccn12`, the result (in the experiment with Escherichia coli; in the experiment on KB; in experiment [1]; in the experiment on Proteus mirabilis; with Candida albicans; in the experiment with Klebsiella pneumoniae) was inactive. For the same compound, the result in the experiment on Human respirovirus 3, in the experiment with Staphylococcus aureus [2] and in the experiment on Human alphaherpesvirus 1 was inactive.
Turning to `Nc1cc2n([C@@H]3O[C@H](CO)[C@@H](O)[C@@H]3O)ccn2c(=O)n1`, the outcome (with Escherichia coli; with KB; in experiment [1]; in the experiment with Proteus mirabilis; with Candida albicans; in the experiment on Klebsiella pneumoniae) was inactive. Further, the result in the experiment on Human respirovirus 3, in the experiment on Staphylococcus aureus [2] and with Human alphaherpesvirus 1 was inactive.
For `C[Si](C)(C)Oc1nc(Cl)cc2nccn12`, the outcome (with Escherichia coli; with KB; in experiment [1]; in the experiment with Proteus mirabilis; with Candida albicans; with Klebsiella pneumoniae) was inactive. Besides, the outcome with Human respirovirus 3, in the experiment on Staphylococcus aureus [2] and in the experiment on Human alphaherpesvirus 1 was inactive.
For orientation: MIC means the least concentration at which growth counts as inhibited. Read a low MIC as inhibition by little substance. `Nc1cc2n([C@@H]3O[C@H](COCc4ccccc4)[C@@H](OCc4ccccc4)[C@@H]3OCc3ccccc3)ccn2c(=O)n1`: the outcome with Escherichia coli, in the experiment on Proteus mirabilis, in the experiment with Candida albicans, in the experiment on Klebsiella pneumoniae, in the experiment on Human respirovirus 3 and in the experiment with Human alphaherpesvirus 1 was inactive. For the same compound, the values for the MIC (in the experiment with Staphylococcus aureus [3]; in experiment [4]) were 160 µM (≈ 88.4 µg/mL) and 40 µM (≈ 22.1 µg/mL), respectively. Further, in the experiment with KB, the result was Active.
Regarding `O=c1nccc2n([C@@H](CO)OC(CO)CO)ccn12`, the outcome (in the experiment on Escherichia coli; in the experiment on KB; in experiment [1]; with Proteus mirabilis; in the experiment on Candida albicans; with Klebsiella pneumoniae) was inactive. Further, the result with Human respirovirus 3, in the experiment on Staphylococcus aureus [2] and in the experiment on Human alphaherpesvirus 1 was inactive.
Consider `O=c1nccc2n([C@@H]3O[C@H](COCc4ccccc4)[C@@H](OCc4ccccc4)[C@@H]3OCc3ccccc3)ccn12`, for which the outcome with Escherichia coli, in the experiment with Proteus mirabilis, with Candida albicans, in the experiment on Klebsiella pneumoniae, with Human respirovirus 3 and with Human alphaherpesvirus 1 was inactive. The MIC with Staphylococcus aureus [3] turned out to be 160 µM (≈ 86 µg/mL); in [4], 40 µM (≈ 21.5 µg/mL). Besides, in the experiment on KB, the outcome was Active.
On to `Cl[C@H]1O[C@H](COCc2ccccc2)[C@@H](OCc2ccccc2)[C@@H]1OCc1ccccc1`, for which the result (in the experiment with Escherichia coli; with KB; in [1]; with Proteus mirabilis; in the experiment on Candida albicans; in the experiment on Klebsiella pneumoniae) was inactive. Further, the result in the experiment with Human respirovirus 3, with Staphylococcus aureus [2] and in the experiment with Human alphaherpesvirus 1 was inactive.
